Patent US7732475B2, “Histone deacetylase inhibitors” (Takeda San Diego, Inc., priority 2005, dated 2010)

Target: HDAC2 (Homo sapiens, UniProt Q92769)
Experiment: HDAC2 fluorescence inhibition assay (tBoc-Lys(Ac)-AMC)

Sequence of HDAC2 (Q92769 with tags, fused parts or gaps): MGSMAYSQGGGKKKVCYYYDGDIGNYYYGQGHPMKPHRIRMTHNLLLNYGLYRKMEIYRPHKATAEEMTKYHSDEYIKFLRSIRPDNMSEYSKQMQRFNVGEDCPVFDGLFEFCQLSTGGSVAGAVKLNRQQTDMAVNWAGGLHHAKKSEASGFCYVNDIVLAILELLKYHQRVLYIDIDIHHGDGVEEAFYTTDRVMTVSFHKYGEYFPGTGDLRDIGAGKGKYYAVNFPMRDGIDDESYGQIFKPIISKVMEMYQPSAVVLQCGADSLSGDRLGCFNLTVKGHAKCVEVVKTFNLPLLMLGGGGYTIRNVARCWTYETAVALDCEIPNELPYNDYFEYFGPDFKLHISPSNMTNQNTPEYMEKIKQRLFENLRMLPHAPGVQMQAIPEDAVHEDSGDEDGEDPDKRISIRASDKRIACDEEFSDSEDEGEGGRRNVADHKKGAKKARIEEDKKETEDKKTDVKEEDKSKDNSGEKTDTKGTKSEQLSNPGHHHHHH

IC50	Structure (SMILES)
50 to 100 nM	Nc1ccccc1NC(=O)c1ccc(Cn2cc3ccc(F)cc3n2)cc1 [Example 35, N-(2-aminophenyl)-4-((6-fluoro-2H-indazol-2-yl)methyl)benzamide]
50 to 100 nM	Nc1ccccc1NC(=O)c1ccc(Cn2ncc3ccc(F)cc32)cc1 [Example 36, N-(2-aminophenyl)-4-((6-fluoro-1H-indazol-1-yl)methyl)benzamide]
50 to 100 nM	Nc1ccccc1NC(=O)c1ccc(Cn2ncc3cc(F)ccc32)cc1 [Example 37, N-(2-aminophenyl)-4-((5-fluoro-1H-indazol-1-yl)methyl)benzamide]
≤ 50 nM	Nc1ccccc1NC(=O)c1ccc(Cn2cc3cc(F)ccc3n2)cc1 [Example 38, N-(2-aminophenyl)-4-((5-fluoro-2H-indazol-2-yl)methyl)benzamide]
≥ 500 nM	CC(Cn1ncc2ccccc21)c1ccc(C(=O)Nc2ccccc2N)cc1 (stereo not drawn) [Example 39, 4-(1-(1H-indazol-1-yl)propan-2-yl)-N-(2-aminophenyl)benzamide]
100 to 500 nM	Nc1ccccc1NC(=O)c1ccc(CCn2ncc3ccccc32)cc1 [Example 40, 4-(2-(1H-indazol-1-yl)ethyl)-N-(2-aminophenyl)benzamide]
50 to 100 nM	Nc1ccccc1NC(=O)c1ccc(CCn2cc3ccccc3n2)cc1 [Example 41, 4-(2-(2H-indazol-2-yl)ethyl)-N-(2-aminophenyl)benzamide]
≤ 50 nM	Nc1ccccc1NC(=O)c1ccc(Cn2ncc3c(Cl)cccc32)cc1 [Example 42, N-(2-aminophenyl)-4-((4-chloro-1H-indazol-1-yl)methyl)benzamide]
≤ 50 nM	Nc1ccccc1NC(=O)c1ccc(Cn2cc3c(Cl)cccc3n2)cc1 [Example 43, N-(2-aminophenyl)-4-((4-chloro-2H-indazol-2-yl)methyl)benzamide]
50 to 100 nM	Nc1ccccc1NC(=O)c1ccc(Cn2ncc3c(F)cc(F)cc32)cc1 [Example 44, N-(2-aminophenyl)-4-((4,6-difluoro-1H-indazol-1-yl)methyl)benzamide]
50 to 100 nM	Nc1ccccc1NC(=O)c1ccc(Cn2cc3c(F)cc(F)cc3n2)cc1 [Example 45, N-(2-aminophenyl)-4-((4,6-difluoro-2H-indazol-2-yl)methyl)benzamide]
50 to 100 nM	Nc1ccccc1NC(=O)c1ccc(Cn2ncc3cccc(F)c32)cc1 [Example 46, N-(2-aminophenyl)-4-((7-fluoro-1H-indazol-1-yl)methyl)benzamide]
50 to 100 nM	Nc1ccccc1NC(=O)c1ccc(Cn2cc3cccc(F)c3n2)cc1 [Example 47, N-(2-aminophenyl)-4-((7-fluoro-2H-indazol-2-yl)methyl)benzamide]
50 to 100 nM	Nc1ccccc1NC(=O)c1ccc(Cn2ncc3c(F)cccc32)cc1 [Example 48, N-(2-aminophenyl)-4-((4-fluoro-1H-indazol-1-yl)methyl)benzamide]
≤ 50 nM	Nc1ccccc1NC(=O)c1ccc(Cn2cc3c(F)cccc3n2)cc1 [Example 49, N-(2-aminophenyl)-4-((4-fluoro-2H-indazol-2-yl)methyl)benzamide]
50 to 100 nM	C[C@H](c1ccc(C(=O)Nc2ccccc2N)cc1)n1cc2ccccc2n1 [Example 50, (R)-4-(1-(2H-indazol-2-yl)ethyl)-N-(2-aminophenyl)benzamide]
50 to 100 nM	C[C@@H](c1ccc(C(=O)Nc2ccccc2N)cc1)n1cc2ccccc2n1 [Example 51, (S)-4-(1-(2H-indazol-2-yl)ethyl)-N-(2-aminophenyl)benzamide]
50 to 100 nM	Cc1nn(Cc2ccc(C(=O)Nc3ccccc3N)cc2)c2c(F)cccc12 [Example 52, N-(2-aminophenyl)-4-((7-fluoro-3-methyl-1H-indazol-1-yl)methyl)benzamide]
50 to 100 nM	Cc1c2cccc(F)c2nn1Cc1ccc(C(=O)Nc2ccccc2N)cc1 [Example 53, N-(2-aminophenyl)-4-((7-fluoro-3-methyl-2H-indazol-2-yl)methyl)benzamide]
100 to 500 nM	Cc1nn(Cc2ccc(C(=O)Nc3ccccc3N)cc2)c2cccc(F)c12 [Example 54, N-(2-aminophenyl)-4-((4-fluoro-3-methyl-1H-indazol-1-yl)methyl)benzamide]
50 to 100 nM	Cc1c2c(F)cccc2nn1Cc1ccc(C(=O)Nc2ccccc2N)cc1 [Example 55, N-(2-aminophenyl)-4-((4-fluoro-3-methyl-2H-indazol-2-yl)methyl)benzamide]
50 to 100 nM	Cc1nn(Cc2ccc(C(=O)Nc3ccccc3N)cc2)c2cc(F)c(F)cc12 [Example 56, N-(2-aminophenyl)-4-((5,6-difluoro-3-methyl-1H-indazol-1-yl)methyl)benzamide]
50 to 100 nM	Cc1c2cc(F)c(F)cc2nn1Cc1ccc(C(=O)Nc2ccccc2N)cc1 [Example 57, N-(2-aminophenyl)-4-((5,6-difluoro-3-methyl-2H-indazol-2-yl)methyl)benzamide]
50 to 100 nM	COc1ccc2cnn(Cc3ccc(C(=O)Nc4ccccc4N)cc3)c2c1 [Example 58, N-(2-aminophenyl)-4-((6-methoxy-1H-indazol-1-yl)methyl)benzamide]

IC50	Structure (SMILES)
≤ 50 nM	COc1ccc2cn(Cc3ccc(C(=O)Nc4ccccc4N)cc3)nc2c1 [Example 59, N-(2-aminophenyl)-4-((6-methoxy-2H-indazol-2-yl)methyl)benzamide]
50 to 100 nM	Nc1ccccc1NC(=O)c1ccc(Cn2nc(Cl)c3ccccc32)cc1 [Example 60, N-(2-aminophenyl)-4-((3-chloro-1H-indazol-1-yl)methyl)benzamide]
≤ 50 nM	Nc1ccccc1NC(=O)c1ccc(Cn2nc3ccccc3c2Cl)cc1 [Example 61, N-(2-aminophenyl)-4-((3-chloro-2H-indazol-2-yl)methyl)benzamide]
≤ 50 nM	Nc1ccccc1NC(=O)c1ccc(Cn2nc3ccc(C(F)(F)F)cc3c2N)cc1 [Example 62, 4-((3-amino-5-(trifluoromethyl)-2H-indazol-2-yl)methyl)-N-(2-aminophenyl)benzamide]
50 to 100 nM	Nc1ccccc1NC(=O)c1ccc(Cn2nc(N)c3cc(C(F)(F)F)ccc32)cc1 [Example 63, 4-((3-amino-5-(trifluoromethyl)-1H-indazol-1-yl)methyl)-N-(2-aminophenyl)benzamide]
50 to 100 nM	Nc1ccccc1NC(=O)c1ccc(Cn2[nH]c(=O)c3ccccc32)cc1 [Example 64, N-(2-aminophenyl)-4-((3-oxo-2,3-dihydro-1H-indazol-1-yl)methyl)benzamide]
100 to 500 nM	Nc1ccccc1NC(=O)c1ccc(Cn2[nH]c3ccccc3c2=O)cc1 [Example 65, N-(2-aminophenyl)-4-((3-oxo-1H-indazol-2(3H)-yl)methyl)benzamide]
≤ 50 nM	COc1ccc2c(C)nn(Cc3ccc(C(=O)Nc4ccccc4N)cc3)c2c1 [Example 66, N-(2-aminophenyl)-4-((6-methoxy-3-methyl-1H-indazol-1-yl)methyl)benzamide]
≤ 50 nM	COc1ccc2c(C)n(Cc3ccc(C(=O)Nc4ccccc4N)cc3)nc2c1 [Example 67, N-(2-aminophenyl)-4-((6-methoxy-3-methyl-2H-indazol-2-yl)methyl)benzamide]
50 to 100 nM	Cc1nn(Cc2ccc(C(=O)Nc3ccccc3N)cc2)c2cc(F)ccc12 [Example 68, N-(2-aminophenyl)-4-((6-fluoro-3-methyl-1H-indazol-1-yl)methyl)benzamide]
50 to 100 nM	Cc1c2ccc(F)cc2nn1Cc1ccc(C(=O)Nc2ccccc2N)cc1 [Example 69, N-(2-aminophenyl)-4-((6-fluoro-3-methyl-2H-indazol-2-yl)methyl)benzamide]
100 to 500 nM	Cc1nn(Cc2ccc(C(=O)Nc3ccccc3N)cc2)c2ccc(F)cc12 [Example 70, N-(2-aminophenyl)-4-((5-fluoro-3-methyl-1H-indazol-1-yl)methyl)benzamide]
50 to 100 nM	Cc1c2cc(F)ccc2nn1Cc1ccc(C(=O)Nc2ccccc2N)cc1 [Example 71, N-(2-aminophenyl)-4-((5-fluoro-3-methyl-2H-indazol-2-yl)methyl)benzamide]
50 to 100 nM	CCc1nn(Cc2ccc(C(=O)Nc3ccccc3N)cc2)c2ccccc12 [Example 72, N-(2-aminophenyl)-4-((3-ethyl-1H-indazol-1-yl)methyl)benzamide]
100 to 500 nM	CCc1c2ccccc2nn1Cc1ccc(C(=O)Nc2ccccc2N)cc1 [Example 73, N-(2-aminophenyl)-4-((3-ethyl-2H-indazol-2-yl)methyl)benzamide]
≤ 50 nM	Cc1nn(Cc2ccc(C(=O)Nc3ccccc3N)cc2)c2cc(O)ccc12 [Example 74, N-(2-aminophenyl)-4-((6-hydroxy-3-methyl-1H-indazol-1-yl)methyl)benzamide]
100 to 500 nM	Cc1c2ccc(O)cc2nn1Cc1ccc(C(=O)Nc2ccccc2N)cc1 [Example 75, N-(2-aminophenyl)-4-((6-hydroxy-3-methyl-2H-indazol-2-yl)methyl)benzamide]
50 to 100 nM	Nc1ccccc1NC(=O)c1ccc(Cn2nc(-c3ccccc3)c3ccccc32)cc1 [Example 76, N-(2-aminophenyl)-4-((3-phenyl-1H-indazol-1-yl)methyl)benzamide]
50 to 100 nM	Nc1ccccc1NC(=O)c1ccc(Cn2nc3ccccc3c2-c2ccccc2)cc1 [Example 77, N-(2-aminophenyl)-4-((3-phenyl-2H-indazol-2-yl)methyl)benzamide]
≤ 50 nM	COc1ccc2c(cnn2Cc2ccc(C(=O)Nc3ccccc3N)cc2)c1 [Example 78, N-(2-aminophenyl)-4-((5-methoxy-1H-indazol-1-yl)methyl)benzamide]
≤ 50 nM	COc1ccc2nn(Cc3ccc(C(=O)Nc4ccccc4N)cc3)cc2c1 [Example 79, N-(2-aminophenyl)-4-((5-methoxy-2H-indazol-2-yl)methyl)benzamide]
50 to 100 nM	Cc1ccc2c(c1)c(C)nn2Cc1ccc(C(=O)Nc2ccccc2N)cc1 [Example 80, N-(2-aminophenyl)-4-((3,5-dimethyl-1H-indazol-1-yl)methyl)benzamide]
50 to 100 nM	Cc1ccc2nn(Cc3ccc(C(=O)Nc4ccccc4N)cc3)c(C)c2c1 [Example 81, N-(2-aminophenyl)-4-((3,5-dimethyl-2H-indazol-2-yl)methyl)benzamide]
50 to 100 nM	COc1cccc2cn(Cc3ccc(C(=O)Nc4ccccc4N)cc3)nc12 [Example 82, N-(2-aminophenyl)-4-((7-methoxy-2H-indazol-2-yl)methyl)benzamide]
